Experimental findings from patent publication US20230159510A1, “NOVEL PRMT5 INHIBITORS” (AMGEN INC., priority 2020, published 2023) are described below.

Test [1] concerns HCT116 WT cells. In words: HCT116 proliferation assay, WT cells (CellTiter-Glo, 6 days). The following applies: Homo sapiens, HCT-116, 144 h, read-out: Prolif_HCT116-WT IC50. In kind it is cell-based. A digest of the protocol:
(§1)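 RPMI 1640/10% FBS; overnight attachment at 37° C, 5% CO2; 8–9-pt 1:3 titration, top 1 or 10 µM; DMSO ctrl; luminescence readout.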

In test [2] the target is PRMT5/MEP50 (Homo sapiens, UniProt O14744). In words: MTase-Glo methyl transferase assay, Method A (Histone H4 peptide, 1 µM MTA, 24 h pre-incubation). The test is classed as biochemical. The arrangement: made in house. The following applies: read-out: PRMT5 MTase Glo Ki (nM, Meth. A). A digest of the protocol:
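PRMT5/MEP50 (10 nM) pre-incubated 24 h with compound, 5 µM SAM and 1 µM MTA, then reaction started with 1 µM Histone H4 (1-21) peptide and run 2 h at room temperature in Tris pH 8.0 buffer. SAH formed detected by MTase-Glo luminescence; IC50 and KI from dose-response curves.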

The subject of test [3] is HCT116 MTAP null cells. The experiment in a line: HCT116 proliferation assay, MTAP null cells (CellTiter-Glo, 6 days). In kind it is cell-based. The following applies: read-out: Protif_ HCT116-MTAP null IC50. A digest of the protocol: as §1
For orientation: In ATP-based viability assays light output follows the ATP content of the culture.

Read-outs that look alike come from different tables or passages of the source.

Chain of PRMT5/MEP50 (O14744 whole entry): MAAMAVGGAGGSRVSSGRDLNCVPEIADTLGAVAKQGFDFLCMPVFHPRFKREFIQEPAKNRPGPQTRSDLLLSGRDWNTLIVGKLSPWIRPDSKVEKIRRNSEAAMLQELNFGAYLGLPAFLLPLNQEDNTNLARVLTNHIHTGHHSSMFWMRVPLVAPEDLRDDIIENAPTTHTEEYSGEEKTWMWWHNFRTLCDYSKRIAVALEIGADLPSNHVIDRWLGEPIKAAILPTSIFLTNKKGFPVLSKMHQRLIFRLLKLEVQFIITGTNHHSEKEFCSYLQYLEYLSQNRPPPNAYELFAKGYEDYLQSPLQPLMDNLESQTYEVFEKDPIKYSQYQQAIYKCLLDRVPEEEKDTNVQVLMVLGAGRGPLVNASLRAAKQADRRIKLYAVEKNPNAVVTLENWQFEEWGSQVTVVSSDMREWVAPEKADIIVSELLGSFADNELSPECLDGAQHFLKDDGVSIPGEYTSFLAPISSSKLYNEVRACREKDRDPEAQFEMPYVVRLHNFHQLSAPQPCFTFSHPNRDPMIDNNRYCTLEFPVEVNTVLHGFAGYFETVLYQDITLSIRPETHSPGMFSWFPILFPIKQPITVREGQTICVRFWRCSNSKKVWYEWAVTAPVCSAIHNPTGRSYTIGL
Chain of PRMT5/MEP50 (Q9BQA1 whole entry partner): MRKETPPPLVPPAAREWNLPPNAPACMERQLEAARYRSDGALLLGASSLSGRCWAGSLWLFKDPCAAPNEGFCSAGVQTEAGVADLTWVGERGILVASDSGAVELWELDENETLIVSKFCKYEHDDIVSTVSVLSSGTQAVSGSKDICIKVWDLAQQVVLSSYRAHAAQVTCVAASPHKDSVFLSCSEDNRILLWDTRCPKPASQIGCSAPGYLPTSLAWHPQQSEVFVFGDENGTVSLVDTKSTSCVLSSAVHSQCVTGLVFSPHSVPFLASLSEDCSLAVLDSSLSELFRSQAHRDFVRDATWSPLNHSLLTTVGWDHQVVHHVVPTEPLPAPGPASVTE

With `Cc1cc2cc(C(=O)N(Cc3ccc(C4=CCN(C(=O)OC(C)(C)C)CC4)cn3)[C@H](C)c3ncccn3)ccc2nc1N` [Example 547, tert-butyl (R)-6-((2-amino-3-methyl-N-(1-(pyrimidin-2-yl)ethyl)quinoline-6-carboxamido)methyl)-3’,6′-dihydro-[3,4′-bipyridine]-1′(2’H)-carboxylate], the IC50 (commonly the concentration that inhibits the measured activity by half) in test [1] stood at 443 nM; in test [3] (HCT116-MTAP null, 144 h), 19 nM. In test [2], the inhibitory constant (Ki) (in general, a dissociation constant, usually derived from enzyme kinetics or from competition with a known ligand) came out at 0.02 nM.

Take `Cc1cc2cc(C(=O)N(Cc3ncccc3F)Cc3ncc(F)cc3F)ccc2nc1N` [Example 387, 2-amino-N-((3,5-difluoro-2-pyridinyl)methyl)-N-((3-fluoro-2-pyridinyl)methyl)-3-methyl-6-quinolinecarboxamide]: the IC50 was over 10000 nM in test [1] and 884 nM in test [3] (HCT116-MTAP null, 144 h). The inhibitory constant (Ki) in test [2] turned out to be 1.67 nM.

Turning to `Cc1cc2cc(C(=O)N(Cc3ccc(C(F)(F)F)cn3)Cc3cccc4[nH]ncc34)ccc2nc1N` [Example 371, 2-amino-N-(1H-indazol-4-ylmethyl)-3-methyl-N-((5-(trifluoromethyl)-2-pyridinyl)methyl)-6-quinolinecarboxamide], the 50% inhibitory concentration (IC50) in test [1] was 1390 nM; in test [3] (HCT116-MTAP null, 144 h), 69 nM. Further, the Ki in test [2] worked out at 0.01 nM.

`Cc1cc2cc(C(=O)N(Cc3ccc4ccccc4n3)[C@H](C)c3ncccn3)ccc2nc1N` (single isomer, unassigned) [Example 446]: the IC50 in test [1] was 851 nM; in test [3] (HCT116-MTAP null, 144 h) it was 45 nM. Further, the inhibition constant (Ki) in test [2] is 0.04 nM.

In the case of `Nc1nc2ncc(C(=O)N(Cc3ccc(C(F)(F)F)cn3)[C@@H](c3ncccn3)C3CC3)cc2cc1Br` [Example 373, 7-amino-6-bromo-N-((R)-cyclopropyl(2-pyrimidinyl)methyl)-N-((5-(trifluoromethyl)-2-pyridinyl)methyl)-1,8-naphthyridine-3-carboxamide], the IC50 in test [1] was determined as 1370 nM; in test [3] (HCT116-MTAP null, 144 h), 159 nM. The inhibitory constant (Ki) in test [2] was 0.03 nM.

With `Cc1cc2cc(C(=O)N(Cc3ccc(C(F)(F)F)cn3)[C@H](C)c3ncccc3F)ccc2nc1N` [Example 385, 2-amino-N-((1R)-1-(3-fluoro-2-pyridinyl)ethyl)-3-methyl-N-((5-(trifluoromethyl)-2-pyridinyl)methyl)-6-quinolinecarboxamide], the half-maximal inhibitory concentration (IC50) in test [1] amounted to 1310 nM; in test [3] (144 h), 55 nM. In test [2], the Ki was 0.08 nM.

In the case of `C[C@H](c1ncccc1F)N(Cc1ccc(C#N)cn1)C(=O)c1ccc2nc(N)c(Br)cc2c1` [Example 352, 2-amino-3-bromo-N-((5-cyano-2-pyridinyl)methyl)-N-((1R)-1-(3-fluoro-2-pyridinyl)ethyl)-6-quinolinecarboxamide], the IC50 in test [1] was found to be 8090 nM; in test [3] (HCT116-MTAP null, 144 h) it was 200 nM. The Ki in test [2] was 0.14 nM.

Take `Cc1cc2cc(C(=O)N(Cc3ccc(OC(F)F)cn3)[C@H](C)c3ncccn3)ccc2nc1N` (single isomer, unassigned) [Example 491]: the IC50 in test [1] is 1270 nM; in test [3] (HCT116-MTAP null, 144 h) it was 61 nM. Also, the Ki in test [2] came out at 0.1 nM.

In the case of `Cc1cc2cc(C(=O)N(Cc3ccc(C(F)(F)F)cn3)Cc3c(F)cccc3F)ccc2nc1N` [Example 344, 2-amino-N-(2,6-difluorobenzyl)-3-methyl-N-((5-(trifluoromethyl)-2-pyridinyl)methyl)-6-quinolinecarboxamide], the IC50 turned out to be 1800 nM in test [1] and 73 nM in test [3] (HCT116-MTAP null, 144 h). Moreover, the Ki in test [2] is 0.1 nM.

With `Cc1cc2cc(C(=O)N(Cc3ccccn3)Cc3ccc(C(F)(F)F)cn3)ccc2nc1N` [Example 302, 2-amino-3-methyl-N-(2-pyridinylmethyl)-N-((5-(trifluoromethyl)-2-pyridinyl)methyl)-6-quinolinecarboxamide], the 50% inhibitory concentration (IC50) is over 10000 nM in test [1] and 359 nM in test [3] (HCT116-MTAP null, 144 h). For the same compound, the inhibitory constant (Ki) in test [2] came to 0.3 nM.

Turning to `Cc1cc2cc(C(=O)N(Cc3ncc(C(F)(F)F)cc3Cl)[C@H](C)c3ncccc3F)ccc2nc1N` [Example 396, 2-amino-N-((3-chloro-5-(trifluoromethyl)-2-pyridinyl)methyl)-N-((1R)-1-(3-fluoro-2-pyridinyl)ethyl)-3-methyl-6-quinolinecarboxamide], the 50% inhibitory concentration (IC50) was over 10000 nM in test [1] and 793 nM in test [3] (HCT116-MTAP null, 144 h). In addition, the Ki in test [2] was found to be 0.27 nM.

With `CC(=O)N1CC=C(c2ccc(CN(C(=O)c3ccc4nc(N)c(C)cc4c3)[C@H](C)c3ncccn3)nc2)CC1` [Example 548, N-((1′-acetyl-1’,2’,3’,6′-tetrahydro[3,4′-bipyridin]-6-yl)methyl)-2-amino-3-methyl-N-((1R)-1-(2-pyrimidinyl)ethyl)-6-quinolinecarboxamide], the concentration for half-maximal inhibition (IC50) in test [1] is 2080 nM; in test [3] (HCT116-MTAP null, 144 h), 88 nM. In addition, the Ki in test [2] turned out to be 0.1 nM.

With `Cc1cc2cc(C(=O)N(Cc3ccc(C(F)(F)F)cn3)[C@@H]3CCC[C@H]3O)ccc2nc1N` [Example 362, 2-amino-N-((1R,2R)-2-hydroxycyclopentyl)-3-methyl-N-((5-(trifluoromethyl)-2-pyridinyl)methyl)-6-quinolinecarboxamide], the IC50 was determined as 2460 nM in test [1] and 106 nM in test [3] (HCT116-MTAP null, 144 h). Besides, the inhibitory constant (Ki) in test [2] is 0.11 nM.

In the case of `Cc1cc2cc(C(=O)N(Cc3ccc(C(F)F)nn3)[C@H](C)c3ncccn3)ccc2nc1N` [Example 380, 2-amino-N-((6-(difluoromethyl)-3-pyridazinyl)methyl)-3-methyl-N-((1R)-1-(2-pyrimidinyl)ethyl)-6-quinolinecarboxamide], the IC50 in test [1] came to 1670 nM; in test [3] (HCT116-MTAP null, 144 h), 79 nM. In addition, the Ki in test [2] was 0.27 nM.

In the case of `Cc1cc2cc(C(=O)N(Cc3ccc(C(F)(F)F)cn3)Cc3ccnc4[nH]ccc34)cnc2nc1N` [Example 368, N-((1H-pyrrolo[2,3-b]pyridin-4-yl)methyl)-7-amino-6-methyl-N-((5-(trifluoromethyl)pyridin-2-yl)methyl)-1,8-naphthyridine-3-carboxamide], the figures for the IC50 in test [1] and in test [3] were 7660 nM and 411 nM, respectively. Besides, the Ki in test [2] amounted to 0.14 nM.

For the compound `Cc1cc2cc(C(=O)N(Cc3ccc(C(=O)N(C)C)cn3)[C@H](C)c3ncccc3F)ccc2nc1N` [Example 561, 2-amino-N-((5-(dimethylcarbamoyl)-2-pyridinyl)methyl)-N-((1R)-1-(3-fluoro-2-pyridinyl)ethyl)-3-methyl-6-quinolinecarboxamide], the IC50 is over 10000 nM in test [1] and 895 nM in test [3] (HCT116-MTAP null, 144 h). The inhibition constant Ki in test [2] is 0.3 nM.

As for `C[C@H](c1ncccn1)N(Cc1ccc(C(F)(F)F)cn1)C(=O)c1cc2cc(Br)c(N)nc2cn1` [Example 419, 2-amino-3-bromo-N-((1R)-1-(2-pyrimidinyl)ethyl)-N-((5-(trifluoromethyl)-2-pyridinyl)methyl)-1,7-naphthyridine-6-carboxamide], the IC50 in test [1] was over 10000 nM; in test [3] (HCT116-MTAP null, 144 h), 271 nM. Moreover, the Ki in test [2] came out at 0.16 nM.

`COC[C@@H](c1ccccn1)N(Cc1ccc(C(F)(F)F)cn1)C(=O)c1ccc2nc(N)c(C)cc2c1` (single isomer, unassigned) [Example 529]: the IC50 was determined as 4240 nM in test [1] and 258 nM in test [3] (HCT116-MTAP null, 144 h). In test [2], the Ki stood at 1.69 nM.

Regarding `C[C@H](c1ncccn1)N(Cc1ccc(Br)nn1)C(=O)c1ccc2nc(N)c(Cl)cc2c1` [Example 348, 2-amino-N-((6-bromo-3-pyridazinyl)methyl)-3-chloro-N-((1R)-1-(2-pyrimidinyl)ethyl)-6-quinolinecarboxamide], the concentration for half-maximal inhibition (IC50) in test [1] is over 10000 nM; in test [3] (HCT116-MTAP null, 144 h) it was 413 nM. Further, the inhibition constant Ki in test [2] was determined as 0.73 nM.
